Test results reported in patent US20210161997A1, “TREATING DISEASES VIA TARGETED MODULATION OF GENE SIGNALING NETWORKS” (Camp4 Therapeutics Corporation, priority 2018, published 2021).

How the values were obtained:
[1] = tested on: UGT1A1; assay: RNA-seq of UGT1A1 expression in compound-treated primary human hepatocytes; assay type: cell-based
In short: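 Cryopreserved primary human hepatocytes from three donors were plated in 24-well format, then treated with compound diluted from 1000× stocks in serum-free maintenance medium for about 16–18 h. Poly(A) RNA-seq log2 fold change was computed against vehicle/pan-experiment controls. Significance required FPKM ≥1, log2FC ≥0.5 and q ≤0.05.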

[2] = tested on: CPOX; assay: RNA-seq of CPOX expression in compound-treated primary human hepatocytes; assay type: cell-based; conditions: RNA-seq, primary human hepatocytes; significance FPKM ≥0.5, log 2(fold change) ≥0.3, q-value ≤0.05
Procedure: Human hepatocytes were obtained from two donors from Massachusetts General Hospital, namely MGH54 and MGH63, and one donor from Lonza, namely HUM4111B. Cryopreserved hepatocytes were cultured in plating media for 16 hours, transferred to maintenance media for 4 hours. Cultured on serum-free media for 2 hours, then a compound was added. The hepatocytes were maintained on the serum-free media for 16 hours prior to gene expression analysis. Primary human hepatocytes were stored in the vapor phase of a liquid nitrogen freezer (about −130° C.).
Human hepatocytes cultured as described above were plated in 24-well format, adding 375,000 cells per well in a volume of 500 ul plating medium. Four hours before treatment, cells were washed with PBS and the medium was changed to either: fresh maintenance medium (complete) or modified maintenance medium.
Compound stocks were prepared at 1000× final concentration and added in a 2-step dilution to the medium to reduce risk of a compound precipitating out of solution when added to the cells, and to ensure reasonable pipetting volumes. One at a time, each compound was first diluted 10-fold in warm (about 37° C.) modified maintenance medium (initial dilution=ID), mixed by vortexing, and the ID was diluted 100-fold into the cell culture (e.g. 5.1 ul into 1 well of a 24-well plate containing 0.5 mL medium). The plate was mixed by carefully swirling and after all wells were treated and returned to the incubator overnight. If desired, separate plates/wells were treated with vehicle-only controls and/or positive controls. If using multi-well plates, controls were included on each plate. After about 18 hours, cells were harvested for further analysis, e.g., ChIP-seq, RNA-seq, ATAC-seq, etc.
This protocol is a modified version of the following protocols: MagMAX mirVana Total RNA Isolation Kit User Guide (Applied Biosystems #MAN0011131 Rev B.0), NEBNext Poly(A) mRNA Magnetic Isolation Module (E7490), and NEBNext Ultra Directional RNA Library Prep Kit for Illumina (E7420) (New England Biosystems #E74901).
The MagMAX mirVana kit instructions (the section titled “Isolate RNA from cells” on pages 14-17) were used for isolation of total RNA from cells in culture. Two hundred μl of Lysis Binding Mix was used per well of the multiwell plate containing adherent cells (usually a 24-well plate).
For mRNA isolation and library prep, the NEBNext Poly(A) mRNA Magnetic Isolation Module and Directional Prep kit was used. RNA isolated from cells above was quantified, and prepared in […] of each sample in 50 μl of nuclease-free water. This protocol may be run in microfuge tubes or in a 96-well plate.
Standard QC were applied (read integrity, mapping statistics, library complexity, fragment bias) to remove unsatisfactory samples. […] Log 2 fold change and significance values were computed using PME count data (with replicates explicitly modeled versus pan-experiment controls), median ratio normalized, using maximum likelihood estimation rather than maximum a posteriori, and disabling the use of Cook's distance cutoff when determining acceptable adjusted p-values. […] RNA-seq signals were also normalized by read depth and visualized using the UCSC browser.
To identify small molecules that modulate target gene expression, primary human hepatocytes were prepared as a monoculture, and at least one small molecule compound was applied to the cells.
RNA-seq was performed to determine the effects of the compounds on the expression of the target genes in hepatocytes. Fold change was calculated by dividing the level of expression in the cell system that had been perturbed by the level of expression in an unperturbed system. Changes in expression having a p-value ≤0.05 were considered significant.
Significance was defined as an FPKM ≥0.5 a log 2(fold change) ≥0.3, and a q-value of ≤0.05.

S=C(NCc1ccc2c(c1)OCO2)N1CCN(c2ncnc3c2oc2ccccc23)CC1 [Amuvatinib]
UGT1A1 Fold Change (Log2) [1]: 0.61 Log2

O=C1CCC(N2C(=O)c3ccccc3C2=O)C(=O)N1 (centres unmarked) [Thalidomide]
CPOX Fold change (Log2) [2]: 0.3 Log2
